The target of the experiment is T1, β-amyloid (Aβ1-42) (Homo sapiens, UniProt P05067).
T1 construct: β-amyloid (Aβ1-42, AnaSpec Inc, USA) was obtained; purchased AnaSpec Inc, USA
The experiment is described as follows: Beta-amyloid aggregation inhibition, fluorescence analysis (Thioflavin T assay). The following applies: compound 10 μM; for Increased RFU (% of Pos.Cont.): aggregated β-amyloid compared to the positive control (no compound) = 100; for decreased aggregation compared with the positive control: positive control taken as 100%. The class given is biochemical. The procedure: The beta-amyloid aggregation inhibitory effect of quercetin 3-O-[3-O″-(E)-p-coumaroyl][β-D-glucopyranosyl-(1→3)-O-α-L-rhamnopyranosyl-(1→6)-O-β-D-glucopyranoside] and quercetin 3-O-[3-O″-(E)-p-coumaroyl][α-L-rhamnopyranosyl-(1→6)-O-β-D-glucopyranoside] was determined by fluorescence analysis (Thioflavin T assay). Specifically, β-amyloid (Aβ1-42, AnaSpec Inc, USA) was obtained and used at a concentration of 0.1 mg/ml. It was stored at −80° C. prior to use. Each of morin (20 μM), phenol red (20 μM), quercetin 3-O-[3-O″-(E)-p-coumaroyl][β-D-glucopyranosyl-(1→3)-O-α-L-rhamnopyranosyl-(1→6)-O-β-D-glucopyranoside] (1 mg/ml), and quercetin 3-O-[3-O″-(E)-p-coumaroyl][α-L-rhamnopyranosyl-(1→6)-O-β-D-glucopyranoside] (1 mg/ml) was diluted to these concentrations in DMSO. In order to determine the degree of inhibition of Aβ1-42 aggregation, each compound at the above concentration was diluted to 10 μM in 50 μL of 0.01 M sodium phosphate buffer solution. Then, 40 μL of 0.1 mg/ml Aβ1-42 was added thereto, followed by addition of 10 μL of 2 mM Thioflavin T. The fluorescence was then measured with a fluorescence spectrometer (RF-5300PC, SHIMADZU CORPORATION, Japan) at 37° C. and intervals of 5 minutes for 150 minutes. In the table above, “RFU” denotes relative fluorescence unit, and “increased RFU” indicates the amount of aggregated β-amyloid. “Increased RFU (% of Pos.Cont.)” indicates the percentage of aggregated β-amyloid compared to the positive control. “Novel substance 31” indicates quercetin 3-O-[3-O″-(E)-p-coumaroyl][β-D-glucopyranosyl-(1→3)-O-α-L-rhamnopyranosyl-(1→6)-O-β-D-glucopyranoside], and “novel substance 32” indicates quercetin 3-O-[3-O″-(E)-p-coumaroyl][α-L-rhamnopyranosyl-(1→6)-O-β-D-glucopyranoside].

The values that follow come from patent US10550142B2, “Quercetin-based compound” (AMOREPACIFIC CORPORATION, priority 2016, dated 2020).

Molecules are shown by their SMILES.

T1 sequence (P05067 672-713 limits assumed): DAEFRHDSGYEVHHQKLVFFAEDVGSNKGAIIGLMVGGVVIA

`O=c1c(O)c(-c2ccc(O)cc2O)oc2cc(O)cc(O)c12` [Morin, morin, reference compound]: the “Increased RFU (% of Pos.Cont.)” value stood at 78.6% and the “decreased aggregation compared with the positive control” value is recorded as 21.4%. In addition, the “Increased RFU (amount of aggregated β-amyloid)” value (Aβ1-42 0.1 mg/ml, 37° C., 150 minutes) turned out to be 11471 RFU.
As for `O=S1(=O)OC(c2ccc(O)cc2)(c2ccc(O)cc2)c2ccccc21` [Phenol Red, phenol red, reference compound], the “Increased RFU (% of Pos.Cont.)” value was 93.6% and the “decreased aggregation compared with the positive control” value worked out at 6.4%.
